In PMC13077603, “Fluorine‐18‐Labeled Nucleotide Analogs Targeting Ecto‐5'‐Nucleotidase (CD73) for Positron Emission Tomography Imaging of Solid Tumors” (Angewandte Chemie (International Ed. in English), 2026):

How the values were obtained:
[1] = biological target: T1, CD73/AMPase activity in human breast tumor tissues (Homo sapiens, UniProt P21589); test: In situ enzyme histochemistry of AMPase activity in breast tumor cryosections; assay type: biochemical; conditions: 10–50 nM inhibitor, 400 µM AMP, tissue cryosections
T1 construct: cryosections of breast tumor samples as well as sentinel lymph node samples were investigated; from tissue; host or cells: primary breast tumors and sentinel lymph nodes of two patients, 6 µm cryosections
T1 sequence (P21589 27-574): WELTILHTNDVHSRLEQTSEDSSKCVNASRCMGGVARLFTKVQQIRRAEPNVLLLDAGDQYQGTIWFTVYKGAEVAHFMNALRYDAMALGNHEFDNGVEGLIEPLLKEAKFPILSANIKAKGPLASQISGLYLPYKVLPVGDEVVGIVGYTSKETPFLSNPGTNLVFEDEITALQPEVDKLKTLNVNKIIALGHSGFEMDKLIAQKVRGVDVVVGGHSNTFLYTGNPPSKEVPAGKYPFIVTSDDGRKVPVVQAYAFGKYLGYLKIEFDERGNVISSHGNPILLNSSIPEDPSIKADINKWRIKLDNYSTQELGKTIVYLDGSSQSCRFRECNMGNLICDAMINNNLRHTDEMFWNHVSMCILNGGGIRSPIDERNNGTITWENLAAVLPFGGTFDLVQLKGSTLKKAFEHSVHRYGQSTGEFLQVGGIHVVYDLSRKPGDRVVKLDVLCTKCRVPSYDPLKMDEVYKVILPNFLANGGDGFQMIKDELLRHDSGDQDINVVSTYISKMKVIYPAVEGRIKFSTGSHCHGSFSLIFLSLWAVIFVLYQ
Procedure: Subsequent analysis of CD73‐mediated AMPase activities was performed by incubating tissue cryosections with AMP and CD73 inhibitors at different concentrations. Figure 2 depicts representative images of AMP‐specific staining in breast tumors from patient X (panel A) and patient Y (panel B), determined in the absence (control) and in the presence of 10 nM of the potent CD73 inhibitor 1.
FIGURE 3 Effects of CD73 inhibitors on AMPase activity in human breast tumor tissues. The effects of CD73 inhibitors on AMPase activity was determined in situ by incubating primary breast tumor samples from patient X (A) and patient Y (B) with 400 µM AMP and 1.5 mM Pb(NO3)2 in the absence (control) and the presence of the indicated concentrations of CD73 inhibitor. (C). Mean pixel intensities of brown staining due to the hydrolysis of AMP leading to Pb3(PO4)2 precipitation were quantified in the selected regions and expressed as arbitrary units (AU) (mean ± SEM; n = 2). Scale bars: 2 mm (A, B), and 500 µm (A, right insets).
For the localization of AMPase activities in human tumors, the lead nitrate-based enzyme histochemistry was employed. […] AMPase activity was determined by measuring AMP-specific brown staining intensities from the images using QuPath v.0.3.0 software. […] The average DAB intensity levels were measured as described earlier.^[39^] […]

[2] = biological target: T2, Soluble recombinant human CD73 (Homo sapiens, UniProt P21589); test: CD73 enzyme inhibition assay, soluble recombinant human CD73; assay type: biochemical; conditions: soluble recombinant human CD73, Km 17 µM, substrate AMP (5 µM)
T2 sequence (P21589 27-549 limits assumed): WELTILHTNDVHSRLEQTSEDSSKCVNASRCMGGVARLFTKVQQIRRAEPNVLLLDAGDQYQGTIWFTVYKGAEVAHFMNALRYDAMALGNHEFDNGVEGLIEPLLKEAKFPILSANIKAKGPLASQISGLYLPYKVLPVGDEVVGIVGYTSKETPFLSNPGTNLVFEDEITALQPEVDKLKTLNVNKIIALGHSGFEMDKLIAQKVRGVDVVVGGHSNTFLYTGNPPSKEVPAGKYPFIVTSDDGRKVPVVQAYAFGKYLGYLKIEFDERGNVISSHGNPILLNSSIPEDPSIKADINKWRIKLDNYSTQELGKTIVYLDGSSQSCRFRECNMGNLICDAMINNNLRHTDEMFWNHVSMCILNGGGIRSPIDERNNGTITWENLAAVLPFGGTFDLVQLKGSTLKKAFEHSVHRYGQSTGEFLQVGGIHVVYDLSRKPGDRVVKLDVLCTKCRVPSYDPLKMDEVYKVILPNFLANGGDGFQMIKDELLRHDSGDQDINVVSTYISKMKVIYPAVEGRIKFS
Procedure: Both compounds were evaluated for metabolic stability in mouse liver microsomes (MLM) and plasma protein binding (PPB) (Table 1).
The CD73 enzyme inhibition assay of recombinant soluble CD73, membrane-bound human CD73, soluble rat CD73 and mouse CD73 was performed as previously described.^[16,35^]

[3] = logD7.4 determination of radiotracers (PBS/octan-1-ol); assay type: physicochemical; conditions: octan-1-ol/PBS; PBS pH 7.4 / octan-1-ol, radiotracer
Procedure: The logD 7.4 values of both radiotracers were determined using a previously described method based on their distribution between phosphate‐buffered saline (PBS) and octan‐1‐ol.
Triazole radiotracers (~400 kBq) in PBS buffer (10 µL, pH 7.4) were added to PBS buffer (590 µL, pH 7.4) and octan-1-ol (600 µL). The two-layer mixture was shaken for 3 min on a vortex mixer at r.t. and centrifuged (200 g) for 5 min. The main part of the octanol layer (400 µL) was carefully collected and transferred to a new tube containing PBS buffer (400 µL, pH 7.4). The two-layer mixture was shaken again for 10 min and centrifuged for 5 min (200 g). Three samples were prepared, and two aliquots (á 100 µL) of both layers were measured in a gamma-counter 2480 Wizard2 (Perkin-Elmer, Waltham, USA). The partition coefficient was determined by dividing cpm (octanol) by cpm (PBS) and indicated as logD7.4 (exp.).

[4] = biological target: Human serum albumin (HSA) (Homo sapiens, UniProt P02768); test: Plasma protein binding (human serum albumin binding); assay type: in vitro ADME; conditions: human serum albumin (HSA), read-out: Plasma protein binding (PPB) (converted)
Procedure: Human serum albumin (HSA) binding.
Plasma protein binding was determined following previously published procedure.^[38^]

Chain of Human serum albumin (HSA) (P02768 25-609): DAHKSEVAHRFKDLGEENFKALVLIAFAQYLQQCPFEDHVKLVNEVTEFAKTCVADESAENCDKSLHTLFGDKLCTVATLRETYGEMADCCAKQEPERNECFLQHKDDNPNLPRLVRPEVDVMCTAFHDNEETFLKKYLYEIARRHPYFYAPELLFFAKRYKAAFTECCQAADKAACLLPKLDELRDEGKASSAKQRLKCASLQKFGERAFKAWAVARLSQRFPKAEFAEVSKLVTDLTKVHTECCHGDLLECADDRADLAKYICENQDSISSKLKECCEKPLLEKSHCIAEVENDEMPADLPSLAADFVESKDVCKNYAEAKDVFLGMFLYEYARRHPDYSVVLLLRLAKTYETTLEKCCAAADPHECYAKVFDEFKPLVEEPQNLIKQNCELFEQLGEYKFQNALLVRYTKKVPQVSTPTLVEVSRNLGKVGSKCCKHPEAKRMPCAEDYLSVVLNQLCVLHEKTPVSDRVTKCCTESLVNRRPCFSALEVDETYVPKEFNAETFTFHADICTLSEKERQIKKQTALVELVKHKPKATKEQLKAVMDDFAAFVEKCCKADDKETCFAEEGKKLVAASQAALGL

- Reduction of CD73/AMPase activity in the breast TME [1]: 60%–70
- Ki [2]: 0.664 nM
- logD [3]: 0.74 ± 0.3
- fraction unbound [4]: 0.34
SMILES: Cn1c(=O)n([C@@H]2O[C@H](COP(=O)(O)CP(=O)(O)O)[C@@H](O)[C@H]2O)cc/c1=N/OCc1ccc(-c2cn(CCF)nn2)cc1 [compound 2, [((2R,3S,4R,5R)-5-{4-[({4-[1-(2-Fluoroethyl)-1H-1,2,3-triazol-4-yl]benzyl}oxy)-imino]-3-methyl-2-oxo-3,4-dihydropyrimidin-1(2H)-yl}-3,4-dihydroxytetrahydro-furan-2-yl)methoxy]-(phosphonomethyl)phosphonic acid]
